ChEMBL document CHEMBL5291721, “A preclinical secondary pharmacology resource illuminates target-adverse drug reaction associations of marketed drugs” (Nat Commun, 2023)

Key:
Cannabinoid receptor 1 = Cannabinoid receptor 1 (Homo sapiens, UniProt P21554)
[1] = target: T1, Alpha-2A adrenergic receptor (Homo sapiens, UniProt P08913)
T1 sequence (P08913 whole entry): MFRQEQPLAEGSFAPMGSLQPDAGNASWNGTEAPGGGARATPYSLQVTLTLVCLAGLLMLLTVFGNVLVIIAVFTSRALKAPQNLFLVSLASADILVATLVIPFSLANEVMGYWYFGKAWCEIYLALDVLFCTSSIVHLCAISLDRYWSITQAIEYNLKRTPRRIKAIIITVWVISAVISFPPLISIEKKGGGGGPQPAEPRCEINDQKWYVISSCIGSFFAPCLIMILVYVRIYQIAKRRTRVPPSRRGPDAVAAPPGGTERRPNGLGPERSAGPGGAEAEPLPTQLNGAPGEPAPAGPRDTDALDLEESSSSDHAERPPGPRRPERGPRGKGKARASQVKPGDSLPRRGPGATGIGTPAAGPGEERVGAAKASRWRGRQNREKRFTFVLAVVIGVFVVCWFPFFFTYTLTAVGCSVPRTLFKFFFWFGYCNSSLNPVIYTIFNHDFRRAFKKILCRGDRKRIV

[2] = target: T2, 5-hydroxytryptamine receptor 1A (Homo sapiens, UniProt P08908)
T2 sequence (P08908 whole entry): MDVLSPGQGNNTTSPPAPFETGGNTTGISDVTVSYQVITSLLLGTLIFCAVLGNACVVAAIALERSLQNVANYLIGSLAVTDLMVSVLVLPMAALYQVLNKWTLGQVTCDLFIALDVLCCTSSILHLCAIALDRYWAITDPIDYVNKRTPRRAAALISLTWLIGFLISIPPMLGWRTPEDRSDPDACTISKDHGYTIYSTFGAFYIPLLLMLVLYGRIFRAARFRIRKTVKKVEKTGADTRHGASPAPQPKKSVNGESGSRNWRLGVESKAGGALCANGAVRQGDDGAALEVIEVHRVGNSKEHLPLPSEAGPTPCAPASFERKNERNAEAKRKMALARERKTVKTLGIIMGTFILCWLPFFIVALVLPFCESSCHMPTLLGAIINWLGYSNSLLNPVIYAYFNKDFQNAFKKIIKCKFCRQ

Melanocortin receptor 4 = Melanocortin receptor 4 (Homo sapiens, UniProt P32245)
Histamine H2 receptor = Histamine H2 receptor (Homo sapiens, UniProt P25021)
[3] = target: T3, Alpha-1A adrenergic receptor (Homo sapiens, UniProt P35348)
T3 sequence (P35348 whole entry): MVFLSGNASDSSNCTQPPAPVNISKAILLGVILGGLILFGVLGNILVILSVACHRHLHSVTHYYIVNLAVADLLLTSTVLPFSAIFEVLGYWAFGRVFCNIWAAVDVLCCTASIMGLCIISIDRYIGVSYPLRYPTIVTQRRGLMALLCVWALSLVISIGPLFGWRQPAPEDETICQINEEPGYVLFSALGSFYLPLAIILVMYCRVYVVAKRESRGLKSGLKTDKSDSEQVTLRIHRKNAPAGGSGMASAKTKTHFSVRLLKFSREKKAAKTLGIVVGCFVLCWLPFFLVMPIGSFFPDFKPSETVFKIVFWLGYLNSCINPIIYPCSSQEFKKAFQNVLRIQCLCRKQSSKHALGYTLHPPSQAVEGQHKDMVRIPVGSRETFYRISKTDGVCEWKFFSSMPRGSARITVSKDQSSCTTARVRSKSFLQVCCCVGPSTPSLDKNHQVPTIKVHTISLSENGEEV

Androgen receptor = target: T4, Androgen receptor (Rattus norvegicus, UniProt P15207); format: functional
T4 sequence (P15207 whole entry): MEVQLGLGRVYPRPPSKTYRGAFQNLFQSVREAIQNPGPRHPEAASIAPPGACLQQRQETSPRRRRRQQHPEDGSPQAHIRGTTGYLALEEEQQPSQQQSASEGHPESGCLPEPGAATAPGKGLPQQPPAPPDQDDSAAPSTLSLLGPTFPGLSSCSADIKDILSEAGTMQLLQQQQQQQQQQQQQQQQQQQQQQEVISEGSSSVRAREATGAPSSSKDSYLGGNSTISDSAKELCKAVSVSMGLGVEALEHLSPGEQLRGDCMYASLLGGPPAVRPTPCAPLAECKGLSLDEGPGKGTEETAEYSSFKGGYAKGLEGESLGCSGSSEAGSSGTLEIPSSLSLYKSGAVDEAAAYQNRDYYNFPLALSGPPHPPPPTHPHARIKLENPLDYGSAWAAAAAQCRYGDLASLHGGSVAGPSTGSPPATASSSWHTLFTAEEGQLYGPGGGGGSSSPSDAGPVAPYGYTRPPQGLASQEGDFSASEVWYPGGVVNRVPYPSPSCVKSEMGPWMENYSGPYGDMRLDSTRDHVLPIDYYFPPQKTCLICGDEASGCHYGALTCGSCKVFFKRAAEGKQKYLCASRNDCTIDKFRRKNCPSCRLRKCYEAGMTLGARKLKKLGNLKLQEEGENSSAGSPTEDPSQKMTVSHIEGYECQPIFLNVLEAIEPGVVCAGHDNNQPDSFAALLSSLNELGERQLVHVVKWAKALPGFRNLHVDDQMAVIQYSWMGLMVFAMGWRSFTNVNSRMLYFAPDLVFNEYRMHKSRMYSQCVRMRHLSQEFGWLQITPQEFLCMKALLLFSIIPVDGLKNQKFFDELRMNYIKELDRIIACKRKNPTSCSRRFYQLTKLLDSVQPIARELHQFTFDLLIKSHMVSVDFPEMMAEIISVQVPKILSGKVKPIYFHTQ

[4] = target: Beta-2 adrenergic receptor (Homo sapiens, UniProt P07550); format: functional, cell-based
[5] = target: T5, Peroxisome proliferator-activated receptor gamma (Homo sapiens, UniProt P37231); format: functional
T5 sequence (P37231 whole entry): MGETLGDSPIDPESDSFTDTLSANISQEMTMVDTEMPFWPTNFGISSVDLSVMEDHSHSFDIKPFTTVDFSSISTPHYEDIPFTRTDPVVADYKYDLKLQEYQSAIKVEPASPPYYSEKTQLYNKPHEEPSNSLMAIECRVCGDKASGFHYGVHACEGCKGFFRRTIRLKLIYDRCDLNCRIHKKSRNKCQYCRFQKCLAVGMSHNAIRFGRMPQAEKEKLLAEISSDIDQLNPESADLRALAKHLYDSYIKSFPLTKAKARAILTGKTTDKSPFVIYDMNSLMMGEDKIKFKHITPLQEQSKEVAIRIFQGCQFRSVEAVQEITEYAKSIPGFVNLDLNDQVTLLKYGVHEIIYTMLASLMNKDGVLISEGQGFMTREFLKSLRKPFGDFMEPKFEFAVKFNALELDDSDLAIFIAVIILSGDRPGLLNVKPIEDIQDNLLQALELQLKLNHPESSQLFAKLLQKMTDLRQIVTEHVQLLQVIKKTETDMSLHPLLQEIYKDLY
Note: assay procedure not described here.

Melanocortin receptor 4, sequence (P32245 whole entry): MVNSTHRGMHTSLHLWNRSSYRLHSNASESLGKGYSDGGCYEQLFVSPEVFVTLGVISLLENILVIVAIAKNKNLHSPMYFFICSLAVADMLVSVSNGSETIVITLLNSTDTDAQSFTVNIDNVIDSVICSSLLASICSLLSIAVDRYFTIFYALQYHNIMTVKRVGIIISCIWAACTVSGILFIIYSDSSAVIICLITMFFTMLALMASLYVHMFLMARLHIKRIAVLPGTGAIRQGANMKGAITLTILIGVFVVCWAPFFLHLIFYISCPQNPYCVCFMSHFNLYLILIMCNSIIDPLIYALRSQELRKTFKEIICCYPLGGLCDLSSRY
Histamine H2 receptor, sequence (P25021 whole entry): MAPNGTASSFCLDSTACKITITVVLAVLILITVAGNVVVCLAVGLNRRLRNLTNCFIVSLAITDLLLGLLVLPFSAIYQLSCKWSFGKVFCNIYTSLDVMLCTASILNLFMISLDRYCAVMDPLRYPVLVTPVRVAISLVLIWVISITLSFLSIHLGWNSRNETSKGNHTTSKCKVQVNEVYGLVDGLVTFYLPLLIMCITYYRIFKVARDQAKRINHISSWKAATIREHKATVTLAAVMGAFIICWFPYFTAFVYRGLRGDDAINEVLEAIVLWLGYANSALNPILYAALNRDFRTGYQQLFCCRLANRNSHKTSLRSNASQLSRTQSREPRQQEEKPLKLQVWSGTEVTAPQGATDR
Cannabinoid receptor 1, sequence (P21554 whole entry): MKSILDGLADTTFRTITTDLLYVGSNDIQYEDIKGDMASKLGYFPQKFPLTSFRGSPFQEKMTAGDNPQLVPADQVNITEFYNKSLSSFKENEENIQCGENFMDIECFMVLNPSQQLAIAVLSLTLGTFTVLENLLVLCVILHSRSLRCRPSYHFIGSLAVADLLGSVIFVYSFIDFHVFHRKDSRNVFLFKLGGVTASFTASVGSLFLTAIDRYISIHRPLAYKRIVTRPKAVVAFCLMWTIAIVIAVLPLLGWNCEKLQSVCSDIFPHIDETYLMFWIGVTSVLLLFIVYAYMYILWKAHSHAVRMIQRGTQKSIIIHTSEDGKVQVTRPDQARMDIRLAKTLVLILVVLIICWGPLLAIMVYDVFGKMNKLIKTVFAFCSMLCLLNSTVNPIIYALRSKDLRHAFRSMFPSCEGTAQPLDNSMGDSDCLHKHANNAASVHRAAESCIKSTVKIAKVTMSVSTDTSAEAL
Beta-2 adrenergic receptor, sequence (P07550 whole entry): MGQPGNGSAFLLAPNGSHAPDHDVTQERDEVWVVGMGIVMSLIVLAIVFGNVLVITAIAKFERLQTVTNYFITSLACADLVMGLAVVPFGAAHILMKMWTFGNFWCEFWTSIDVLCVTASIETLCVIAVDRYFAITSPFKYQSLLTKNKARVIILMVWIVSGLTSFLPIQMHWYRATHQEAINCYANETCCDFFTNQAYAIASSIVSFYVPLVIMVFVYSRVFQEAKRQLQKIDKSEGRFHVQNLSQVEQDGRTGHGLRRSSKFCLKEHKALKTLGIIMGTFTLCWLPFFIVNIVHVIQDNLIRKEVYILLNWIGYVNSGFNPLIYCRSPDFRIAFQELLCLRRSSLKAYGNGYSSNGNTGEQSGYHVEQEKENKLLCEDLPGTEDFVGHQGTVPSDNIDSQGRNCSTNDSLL

SMILES | AC50 (Cannabinoid receptor 1) [µM] | AC50 [1] [µM] | AC50 [2] [µM] | AC50 (Melanocortin receptor 4) [µM] | AC50 (Histamine H2 receptor) [µM] | AC50 [3] [µM] | AC50 (Androgen receptor) [µM] | AC50 [4] [µM] | AC50 [5] [µM]
NCCCC(O)(P(=O)(O)O)P(=O)(O)O [ALENDRONIC ACID] | > 10 | > 10 | > 10 | > 30 | > 10 | > 10 | – | – | –
CCN(CC)C(=O)C1CN2CCc3cc(OC)c(OC)cc3C2CC1OC(C)=O (configuration not stated) [BENZQUINAMIDE] | > 10 | 3.03 | – | > 10 | – | > 10 | > 30 | > 30 | > 30
CS(=O)(=O)OCCCCOS(C)(=O)=O [BUSULFAN] | – | – | – | – | – | – | – | > 30 | > 30
CCCCC1(CC)C(=O)NC(=O)NC1=O [BUTETHAL] | – | – | – | – | – | – | > 30 | > 30 | > 30
CCCC(C)(COC(N)=O)COC(=O)NC(C)C (configuration not stated) [CARISOPRODOL] | > 10 | > 10 | > 10 | > 30 | > 10 | 13.3 | – | > 30 | –
C=CC1=C(C(=O)O)N2C(=O)[C@@H](NC(=O)/C(=N\OCC(=O)O)c3csc(N)n3)[C@H]2SC1 [CEFIXIME] | – | – | – | – | – | – | – | > 30 | > 30
CO[C@@]1(NC(=O)Cc2cccs2)C(=O)N2C(C(=O)O)=C(COC(N)=O)CS[C@@H]21 [CEFOXITIN] | – | – | – | – | – | – | – | > 30 | 11
CCN(CC)CCOC(=O)c1ccc(N)cc1Cl [CHLOROPROCAINE] | – | – | – | – | – | – | – | > 30 | > 30
COc1cccc2c1C(=O)c1c(O)c3c(c(O)c1C2=O)C[C@@](O)(C(C)=O)C[C@@H]3O[C@H]1C[C@H](N)[C@H](O)[C@H](C)O1 [DAUNORUBICIN] | – | – | – | – | – | – | – | > 30 | > 10
N[C@H](Cc1cc(I)c(Oc2cc(I)c(O)c(I)c2)c(I)c1)C(=O)O [DEXTROTHYROXINE] | > 10 | > 10 | > 10 | > 30 | > 10 | > 10 | – | > 30 | –
CC(=O)OCC(CCn1cnc2cnc(N)nc21)COC(C)=O [FAMCICLOVIR] | > 10 | > 10 | > 10 | > 30 | > 10 | 11.6 | – | > 30 | –
O=C(O)c1ccccc1OP(=O)(O)O [FOSFOSAL] | – | – | – | – | – | – | – | > 30 | > 30
COC1=C(OC)C(=O)C(CCCCCCCCCCO)=C(C)C1=O [IDEBENONE] | > 10 | > 10 | > 10 | > 30 | > 10 | > 10 | – | > 30 | –
Nc1nc2c(c(=O)[nH]1)N(C=O)C(CNc1ccc(C(=O)N[C@@H](CCC(=O)O)C(=O)O)cc1)CN2 (some centres not stated) [LEUCOVORIN] | – | – | – | – | – | – | > 30 | > 30 | > 30
CCCC[C@H](C)C[C@H](O)/C=C/[C@H]1[C@H](O)CC(=O)[C@@H]1CCCC/C=C/C(=O)O [LIMAPROST] | – | – | – | – | – | – | > 30 | > 30 | > 30
CC#CCn1c(N2CCC[C@@H](N)C2)nc2c1c(=O)n(Cc1nc(C)c3ccccc3n1)c(=O)n2C [LINAGLIPTIN] | > 10 | > 10 | > 10 | 41.8 | 12.3 | – | – | – | –
Cc1ccc(NC(=O)C2(c3ccc4c(c3)OC(F)(F)O4)CC2)nc1-c1cccc(C(=O)O)c1 [LUMACAFTOR] | – | – | – | – | – | – | > 30 | > 30 | > 30
CCOC(=O)Nc1ccc2c(c1)N(C(=O)CCN1CCOCC1)c1ccccc1S2 [MORICIZINE] | – | – | – | – | – | – | > 30 | > 30 | > 30
O=C1CN=C(c2ccccc2)c2cc(Cl)ccc2N1 [NORDAZEPAM] | > 10 | > 10 | > 10 | > 30 | > 10 | > 10 | – | > 30 | –
CC(CCc1ccccc1)NC(C)C(O)c1ccc(O)cc1 (configuration not stated) [NYLIDRIN] | > 10 | 9.39 | 3.38 | > 30 | > 10 | – | – | 0.082 | –
O=C1Nc2ccc(Cl)cc2C(c2ccccc2)=NC1O (configuration not stated) [OXAZEPAM] | > 10 | > 10 | > 10 | > 30 | > 10 | – | – | > 30 | –
CCn1cc(C(=O)O)c(=O)c2cc(F)c(N3CCN(C)CC3)cc21 [PEFLOXACIN] | – | – | – | – | – | – | – | > 30 | > 30
Cc1ccc(=O)n(-c2ccccc2)c1 [PIRFENIDONE] | – | – | – | – | – | > 10 | – | > 30 | > 30
CCCNC(C)C(=O)Nc1ccccc1C (configuration not stated) [PRILOCAINE] | – | – | – | – | – | – | – | > 30 | > 30
CC(C)CC(N(C)C)C1(c2ccc(Cl)cc2)CCC1 (configuration not stated) [SIBUTRAMINE] | > 10 | > 10 | > 10 | > 30 | > 10 | – | – | – | –
[H]/N=C(/N)N[C@H]1[C@H](O)[C@@H](O)[C@H](O[C@@H]2O[C@@H](C)[C@](O)(C=O)[C@H]2O[C@@H]2O[C@@H](CO)[C@H](O)[C@@H](O)[C@@H]2NC)[C@@H](N/C(N)=N\[H])[C@@H]1O [STREPTOMYCIN] | > 30 | > 10 | > 10 | > 30 | > 10 | > 10 | – | – | –
COc1cc2c(Nc3ccc(Br)cc3F)ncnc2cc1OCC1CCN(C)CC1 [VANDETANIB] | – | – | – | – | – | – | – | > 30 | > 30
N#C[C@@H]1CCCN1C(=O)CNC12CC3CC(CC(O)(C3)C1)C2 [VILDAGLIPTIN] | > 30 | > 10 | > 10 | > 30 | > 10 | – | – | – | –
